Experiment: solvent given as SMILES

CC#N
Conditions | solvation free energy, 298 K [kcal/mol]
in Brc1cccc2ccccc12 | -3.45
in C1CCOC1 | -4.3
in C1COCCO1 | -4.45
in CC(=O)N(C)C | -4.8
in CC(=O)OCc1ccccc1 | -4.08
in CC(C)=O | -3.83
in CC(C)CCCC(C)CCCC(C)CCCCC(C)CCCC(C)CCCC(C)C | -1.87
in CCC(C)=O | -4.46
in CCCCCC | -2.41
in CCCCCCC | -2.28
in CCCCCCCC | -2.17
in CCCCCCCCCCCCCCCC | -2.04
in CCCCCCCCO | -3.15
in CCCCCl | -3.63
in CCCCN(C=O)CCCC | -4.08
in CCCCO | -3.55
in CCCCOCCCC | -2.89
in CCO | -3.96
in CCOC(C)=O | -4.19
in CCOCC | -3.63
in CN1CCCCC1=O | -4.65
in CN(C)C=O | -4.65
in CNC(C)=O | -4.23
in CO | -4.04
in COC(C)(C)C | -3.67
in COC(C)=O | -4.53
in Cc1ccc(C)cc1 | -3.44
in ClC(Cl)(Cl)Cl | -3.03
in ClC(Cl)Cl | -4.43
in ClCCCl | -4.41
in ClCCl | -4.71
in Clc1ccccc1 | -3.74
in NC=O | -4.37
in O | -3.92
in O=C1CCCCC1 | -4.3
in [2H]O[2H] | -4.1
in c1ccc2ncccc2c1 | -3.98

CCCCCCCCCCCCCC(=O)OC
Conditions | solvation free energy, 298 K [kcal/mol]
in O | -1.14

Cc1cccc2c(C)cccc12
Conditions | solvation free energy, 298 K [kcal/mol]
in CCCCCCCCC=CCCCCCCCC(=O)OCC(COC(=O)CCCCCCCC=CCCCCCCCC)OC(=O)CCCCCCCC=CCCCCCCCC | -9.3
in O | -2.78

c1ccc2cc3ccccc3cc2c1
Conditions | solvation free energy, 298 K [kcal/mol]
in Brc1ccccc1 | -11.6
in C1CCOC1 | -11.9
in C1COCCO1 | -11.5
in CC(=O)N(C)C | -11.5
in CC(C)(C)O | -9.71
in CC(C)=O | -11.2
in CC(C)CC(C)(C)C | -9.93
in CC(C)CC(C)O | -9.89
in CC(C)CCCC(C)CCO | -10.2
in CC(C)CCO | -9.93
in CC(C)CO | -9.77
in CC(C)O | -10
in CC(C)OC(C)C | -10.5
in CC(C)OCCO | -10.8
in CC(O)COC(C)(C)C | -10.5
in CCC(C)(C)O | -9.99
in CCC(C)=O | -11.3
in CCC(C)O | -9.9
in CCCC(=O)OC | -11.2
in CCCC(C)CO | -10
in CCCC(C)O | -9.99
in CCCCC(CC)CO | -10.1
in CCCCCC | -10.2
in CCCCCCC | -10.2
in CCCCCCCC | -10.2
in CCCCCCCCCC | -10.3
in CCCCCCCCCCO | -10.5
in CCCCCCCCO | -10.3
in CCCCCCCO | -10.3
in CCCCCCO | -10.3
in CCCCCO | -10.2
in CCCCCOC(C)=O | -11.1
in CCCCCl | -11.2
in CCCCO | -10.1
in CCCCOC(C)=O | -11.1
in CCCCOCCCC | -10.6
in CCCCOCCO | -10.8
in CCCO | -10
in CCCOC(C)=O | -11.1
in CCCOCCO | -10.8
in CCO | -10.4
in CCOC(C)=O | -11.1
in CCOCC | -10.9
in CCOCCO | -10.7
in CN1CCCC1=O | -12
in CN(C)C=O | -11.6
in CNC=O | -10.4
in CO | -9.89
in COC(C)(C)C | -10.7
in COC(C)=O | -11.1
in COC(C)CCO | -10.7
in COCCO | -10.8
in Cc1ccc(C)cc1 | -11.2
in Cc1cccc(C)c1 | -11.3
in Cc1ccccc1C | -11.5
in ClC(Cl)(Cl)Cl | -11.2
in ClC(Cl)Cl | -11.5
in ClCCl | -11.8
in Clc1ccccc1 | -11.5
in Fc1ccccc1 | -11.3
in N#Cc1ccccc1 | -11.4
in O | -4.12
in O=C1CCCCC1 | -11.6

Cc1c(C)c(C)c(C)c(C)c1C
Conditions | solvation free energy, 298 K [kcal/mol]
in CCCCCCCCO | -8.61
in O | -1.95

CCC(C)(O)C(C)C (stereo not given)
Conditions | solvation free energy, 298 K [kcal/mol]
in CCCCCCCC | -5.4
in CCCCCCCCCC | -5.34

Clc1cc(Cl)c(-c2ccccc2)cc1Cl
Conditions | solvation free energy, 298 K [kcal/mol]
in CCCCCCCCO | -10.6

Clc1c(Cl)c(Cl)c2c(c1Cl)Oc1ccccc1O2
Conditions | solvation free energy, 298 K [kcal/mol]
in O | -3.81

CCOc1ccc(C(=O)N(O)c2ccc(C)cc2)cc1
Conditions | solvation free energy, 298 K [kcal/mol]
in O | -12.4

OC1COC(O)C(O)C1O (stereo not given)
Conditions | solvation free energy, 298 K [kcal/mol]
in O | -20.5

ClC1=C(Cl)C2(Cl)C3C4C=CC(C4)C3C1(Cl)C2(Cl)Cl (stereo not given)
Conditions | solvation free energy, 298 K [kcal/mol]
in CCCCCCCCO | -11.3
in O | -3.75

CN(C)C1CCCCC1
Conditions | solvation free energy, 298 K [kcal/mol]
in O | -4.12

OCCc1ccccc1
Conditions | solvation free energy, 298 K [kcal/mol]
in O | -6.79

OCc1ccccc1O
Conditions | solvation free energy, 298 K [kcal/mol]
in O | -10.2

C1CC1
Conditions | solvation free energy, 298 K [kcal/mol]
in C1COCCO1 | -1.94
in CC(C)O | -1.58
in CCCCCC | -1.98
in CCCCO | -1.72
in CCCO | -1.57
in O | 0.75

CN1C(=O)CN=C(c2ccccc2)c2cc(Cl)ccc21
Conditions | solvation free energy, 298 K [kcal/mol]
in O | -12.6

CC(C)CBr
Conditions | solvation free energy, 298 K [kcal/mol]
in C=CCCCCCCCCCCCCCC | -3.98
in O | -0.03

Oc1cccc2ccccc12
Conditions | solvation free energy, 298 K [kcal/mol]
in CC(C)CC(C)(C)C | -8.54
in CCCCCC | -8.71
in CCCCCCC | -8.75
in CCCCCCCC | -8.73
in CCCCCCCCCC | -8.76
in O | -7.93

O=C(CC(=O)C(F)(F)F)c1cccs1
Conditions | solvation free energy, 298 K [kcal/mol]
in O | -6.15

Clc1cc(Cl)c(-c2c(Cl)cc(Cl)cc2Cl)c(Cl)c1
Conditions | solvation free energy, 298 K [kcal/mol]
in CCCCCCCCO | -12.5
in O | -1.96

CCCCCCO
Conditions | solvation free energy, 298 K [kcal/mol]
in Brc1ccccc1 | -5.98
in C1CCOC1 | -7.42
in CC#N | -6.44
in CC(C)CC(C)(C)C | -5.1
in CC(C)O | -7.54
in CCC(C)=O | -6.96
in CCCCCC | -5.02
in CCCCCCC | -5.27
in CCCCCCCC | -4.99
in CCCCCCCCCC | -4.99
in CCCCCCCCCCCCCCCC | -4.89
in CCCCCCCCCCO | -6.99
in CCCCCCCCO | -7.06
in CCCCCl | -5.99
in CCCCOC(C)=O | -6.83
in CCCOCCC | -6.31
in Cc1ccccc1C | -5.91
in NC=O | -6.04
in O | -4.4
in [2H]O[2H] | -4.57

CC(=O)OC1C2(C)CCC(C2)C1(C)C (stereo not given)
Conditions | solvation free energy, 298 K [kcal/mol]
in O | -2.69

CC1=CCC2C(C1)C2(C)C (stereo not given)
Conditions | solvation free energy, 298 K [kcal/mol]
in O | 0.79

CN(C)C(=O)c1ccc([N+](=O)[O-])cc1
Conditions | solvation free energy, 298 K [kcal/mol]
in O | -11.9

CC(C)C1=CC2=CCC3C(C)(C)CCCC3(C)C2CC1 (stereo not given)
Conditions | solvation free energy, 298 K [kcal/mol]
in O | -0.08

CCCOC(=O)CC
Conditions | solvation free energy, 298 K [kcal/mol]
in O | -2.45

COC(=O)c1ccc(N(C)C)cc1
Conditions | solvation free energy, 298 K [kcal/mol]
in CN(C)C=O | -11.9
in O | -7.01

OCCCc1ccccc1
Conditions | solvation free energy, 298 K [kcal/mol]
in O | -6.92

CC(=O)OCC(COC(C)=O)OC(C)=O
Conditions | solvation free energy, 298 K [kcal/mol]
in O | -8.84

C1CCCCCCC1
Conditions | solvation free energy, 298 K [kcal/mol]
in CCCCCCCCCCCCCCCC | -5.55
in CN1CCCC1=O | -4.77
in CN(C)C=O | -4.39
in COCCO | -4.52
in CS(C)=O | -3.85
in N#CCCCCC#N | -4.01
in NCCO | -3
in O | 0.91

O=C(O)c1cc(O)c(O)c(O)c1
Conditions | solvation free energy, 298 K [kcal/mol]
in CCO | -19.8

O=[N+]([O-])c1ccc(Cl)c(Cl)c1
Conditions | solvation free energy, 298 K [kcal/mol]
in C1CCCCC1 | -8.7
in CC(C)O | -8.04
in CCCCCC | -7.78
in CCCCCCC | -7.65
in CCCCCCCCC=CCCCCCCCC(=O)OCC(COC(=O)CCCCCCCC=CCCCCCCCC)OC(=O)CCCCCCCC=CCCCCCCCC | -7.34
in CCCCO | -8.08
in CCCO | -8.26
in CCO | -8.24
in CCOC(C)=O | -9.16
in CO | -8.41
in ClC(Cl)(Cl)Cl | -9.07

Cc1cccc(N)c1
Conditions | solvation free energy, 298 K [kcal/mol]
in O | -5.69

COc1ccc(C(=O)O)cc1
Conditions | solvation free energy, 298 K [kcal/mol]
in C1CCOC1 | -12.7
in C1COCCO1 | -12.4
in CC(C)CCO | -11.5
in CC(C)CO | -11.5
in CC(C)O | -11.8
in CC(C)OC(C)C | -10.8
in CC(C)OCCO | -12.3
in CC(O)COC(C)(C)C | -11.9
in CCC(C)O | -11.7
in CCCC(C)O | -11.6
in CCCCCCCCCCO | -11.4
in CCCCCCCCO | -11.5
in CCCCCCCO | -11.5
in CCCCCCO | -11.6
in CCCCCO | -11.6
in CCCCO | -11.7
in CCCCOC(C)=O | -11.5
in CCCCOCCO | -12.2
in CCCO | -11.8
in CCCOCCO | -12.2
in CCO | -12
in CCOC(C)=O | -11.8
in CCOCC | -11.5
in CCOCCO | -12.4
in COC(C)CCO | -12.3
in O | -9.14

FC(F)(F)F
Conditions | solvation free energy, 298 K [kcal/mol]
in Brc1ccccc1 | 1.57
in C1CCOC1 | 1
in C1COCCO1 | 1.38
in CC(C)(C)O | 0.8
in CC(C)CC(C)(C)C | 0.56
in CC(C)CO | 1
in CCC(C)O | 1.01
in CCCCCC | 0.49
in CCCCCCC | 0.62
in CCCCCCCC | 0.72
in CCCCCCCC(=O)OCC(COC(=O)CCCCCCC)OC(=O)CCCCCCC | 1.4
in CCCCCCCCC | 0.8
in CCCCCCCCCC | 0.86
in CCCCCCCCCCC | 0.92
in CCCCCCCCCCCC | 0.97
in CCCCCCCCCCCCC | 1.02
in CCCCCCCCCCCCCC | 1.06
in CCCCCCCCCCCCCCC | 1.1
in CCCCCCCCCCCCCCCC | 1.11
in CCCCCCCCCCCO | 1.39
in CCCCCCCCCCO | 1.36
in CCCCCCCCCO | 1.32
in CCCCCCCCO | 1.27
in CCCCCCCO | 1.25
in CCCCCCO | 1.21
in CCCCCO | 1.16
in CCCCO | 1.1
in CCCO | 1.04
in CCO | 0.98
in CN1CCCC1=O | 1.8
in CN(C)C=O | 1.56
in CO | 1
in Cc1ccc(C)cc1 | 1.11
in Cc1cccc(C)c1 | 1.13
in Cc1ccccc1C | 1.21
in ClC(Cl)(Cl)Cl | 0.82
in Clc1ccccc1 | 1.3
in O | 3.13
in O=C1CCCC1 | 1.36
in O=C1CCCCC1 | 1.41

From the CombiSolv-Exp solvation set (Vermeire and Green 2021)
